Test results from US20100203125A1, “SYNERGISTIC ANTIBACTERIAL FORMULATION AND A METHOD OF MAKING THE SAME” (priority 2004, published 2010).
In brackets after ≈: the same amount, converted by molar mass. Where two headings read alike, the source gives them in different places. Each block holds one molecule with its values, some of them ahead of it.

Tests used:
[1] = Clinical Trial 2, comparative plasma concentration study; details: for Plasma concentration from the formulation compared with conventional separate dosing: human, in vivo
Experimental: Comparative studies were conducted on 24 healthy male patients who were pre-tested for non-allergic conditions against Betalactam and Cephalsporin antibiotics.

[2] = Plasma concentration levels of cefixime and dicloxacillin formulation (Table 4); details: in vivo
plasma proteins = details: cited from earlier work
[3] = cited from earlier work
[4] = in vivo; cited from earlier work
[5] = in vivo, cited from earlier work; for Bioavailability after oral administration / Serum half-life / half life: human
Streptococcus pneumoniae = details: cited from earlier work
Streptococcus pyogenes = details: cited from earlier work
[6] = test system: Staphylococcus epidermidis; details: cited from earlier work
Staphylococcus aureus = details: cited from earlier work
Neisseria gonorrhoeae = details: cited from earlier work
[7] = test system: Salmonella typhimurium [C3]; test: Zone of inhibition study; assay type: cell-based; details: 37° C. 24 hours, excluding well diameter
Experimental: (§1) Quantitative methods of susceptibility testing that require measurements of zone diameters give the most precise estimates of antibiotic susceptibility. Zone of inhibition study was performed Cefixime and dicloxacillin combination with suitable concentration and compare with the zone of inhibition of individual antibiotic to study the synergy. Nutrient Agar plates (duplicate sets) were used for inoculation of microorganism culture using spread plate technique. Wells of 6.0 mm diameter were made in agar plate and test and standard antibiotics preparations were placed in the respective wells. Suitable control plates and plates with no antibiotics were simultaneously then inoculated after appropriate dilution on separate nutrient agar plates (duplicate sets) using spread plate technique. […] All the diameters [zone of inhibition] were measure excluding the well diameter. Four species of bacteria namely E. coli [C1], S. aureus [C2], Salmonella typhimurium [C3], and S. epidermidis [C4] were selected for zone of inhibition study. […] There was no zone of inhibitions found for control plates.

E. coli [C1] = test: Zone of inhibition study; assay type: cell-based; details: 37° C. 24 hours, excluding well diameter
Experimental: as §1

S. aureus [C2] = test: Zone of inhibition study; assay type: cell-based; details: 37° C. 24 hours, excluding well diameter
Experimental: as §1

S. epidermidis [C4] = test: Zone of inhibition study; assay type: cell-based; details: 37° C. 24 hours, excluding well diameter
Experimental: as §1

SMILES: C=CC1=C(C(=O)O)N2C(=O)[C@@H](NC(=O)/C(=N\OCC(=O)O)c3csc(N)n3)[C@H]2SC1 [Cefixime]
Plasma concentration from the formulation compared with conventional separate dosing [1]: better
Blood plasma conc ([1]; separate tablets (Cloxacillin 250 mg × 2, Cefixime 200 mg), 1 hrs): 0.46
Blood plasma conc ([1]; separate tablets (Cloxacillin 250 mg × 2, Cefixime 200 mg), 2 hrs): 1.23
Blood plasma conc ([1]; separate tablets (Cloxacillin 250 mg × 2, Cefixime 200 mg), 3 hrs): 1.52
Blood plasma conc ([1]; separate tablets (Cloxacillin 250 mg × 2, Cefixime 200 mg), 4 hrs): 1.79
Blood plasma conc ([1]; separate tablets (Cloxacillin 250 mg × 2, Cefixime 200 mg), 6 hrs): 1.14
Blood plasma conc ([1]; separate tablets (Cloxacillin 250 mg × 2, Cefixime 200 mg), 8 hrs): 0.88
Blood plasma conc ([1]; separate tablets (Cloxacillin 250 mg × 2, Cefixime 200 mg), 9 hrs): 0.72
Blood plasma conc ([1]; separate tablets (Cloxacillin 250 mg × 2, Cefixime 200 mg), 10 hrs): 0.6
Blood plasma conc ([1]; separate tablets (Cloxacillin 250 mg × 2, Cefixime 200 mg), 12 hrs): 0.5
Blood plasma conc ([1]; separate tablets (Cloxacillin 250 mg × 2, Cefixime 200 mg), 14 hrs): 0.36
Blood plasma conc ([1]; separate tablets (Cloxacillin 250 mg × 2, Cefixime 200 mg), 16 hrs): 0.2
Blood plasma conc ([1]; separate tablets (Cloxacillin 250 mg × 2 at 6 hour interval, Cefixime 200 mg), 0 hrs, average of 24): 0
Blood plasma conc ([1]; synergetic formulation (Cloxacillin 500 mg, Cefixime in combination), 0 hrs, average of 24): 0
Blood plasma conc ([1]; synergetic formulation (Cloxacillin 500 mg, Cefixime in combination), 1 hrs): 0.7
Blood plasma conc ([1]; synergetic formulation (Cloxacillin 500 mg, Cefixime in combination), 2 hrs): 1.4
Blood plasma conc ([1]; synergetic formulation (Cloxacillin 500 mg, Cefixime in combination), 3 hrs): 1.58
Blood plasma conc ([1]; synergetic formulation (Cloxacillin 500 mg, Cefixime in combination), 4 hrs): 2.01
Blood plasma conc ([1]; synergetic formulation (Cloxacillin 500 mg, Cefixime in combination), 6 hrs): 1.52
Blood plasma conc ([1]; synergetic formulation (Cloxacillin 500 mg, Cefixime in combination), 8 hrs): 1.03
Blood plasma conc ([1]; synergetic formulation (Cloxacillin 500 mg, Cefixime in combination), 9 hrs): 0.91
Blood plasma conc ([1]; synergetic formulation (Cloxacillin 500 mg, Cefixime in combination), 10 hrs): 0.72
Blood plasma conc ([1]; synergetic formulation (Cloxacillin 500 mg, Cefixime in combination), 12 hrs): 0.6
Blood plasma conc ([1]; synergetic formulation (Cloxacillin 500 mg, Cefixime in combination), 14 hrs): 0.34
Blood plasma conc ([1]; synergetic formulation (Cloxacillin 500 mg, Cefixime in combination), 16 hrs): 0.18
concentration at 0 h [2]: 0 ng/mL
concentration at 0.5 h [2]: 360 ng/mL
concentration at 1 h [2]: 520 ng/mL
concentration at 2 h [2]: 1340 ng/mL
concentration at 3 h [2]: 1620 ng/mL
concentration at 4 h [2]: 1840 ng/mL
concentration at 6 h [2]: 1560 ng/mL
concentration at 8 h [2]: 980 ng/mL
concentration at 10 h [2]: 600 ng/mL
concentration at 12 h [2]: 500 ng/mL
concentration at 14 h [2]: 350 ng/mL
concentration at 16 h [2]: 200 ng/mL
concentration at 20 h [2]: 0 ng/mL
concentration at 24 h [2]: 0 ng/mL
Plasma protein binding (plasma proteins; Table 1): 60-70%
Solubility in dehydrated alcohol [3]: sparingly soluble
Solubility in ethyl acetate [3]: practically insoluble
Solubility in methyl alcohol [3]: freely soluble
Solubility in water [3]: slightly soluble
Acute toxicity [4]: negligibly low
Oral absorption ([5]; po): 50%
Oral dose absorbed from the gastrointestinal tract ([5]; po): 40-50%
Eliminated by nonrenal mechanisms [5]: Up to 60%
Plasma half-life [5]: 180 min
Urinary Excretion [5]: 34-48%
Vol Distribution [5]: 0.30 ± 0.03

SMILES: Cc1onc(-c2ccccc2Cl)c1C(=O)N[C@@H]1C(=O)N2[C@@H]1SC(C)(C)[C@@H]2C(=O)O [Cloxacillin sodium, chlorphenylmethyl isoxazolyl penicillin sodium]
Bioavailability after oral administration ([5]; po): 37-60%

SMILES: Cc1onc(-c2ccccc2Cl)c1C(=O)N[C@@H]1C(=O)N2[C@@H]1SC(C)(C)[C@@H]2C(=O)O [Cloxacillin]
Plasma concentration from the formulation compared with conventional separate dosing [1]: significantly better plasma concentration
MIC90 (Streptococcus pneumoniae): 0.25 µg/mL (≈ 0.574 µM)
Plasma protein binding (plasma proteins; plasma): 93-95%
MIC90 (Streptococcus pyogenes): 0.1 µg/mL (≈ 0.229 µM)
MIC90 [6]: 0.1 µg/mL (≈ 0.229 µM)
MIC90 (Staphylococcus aureus): 0.1 µg/mL (≈ 0.229 µM)
Serum half-life / half life [5]: 24 to 48 min
Urinary clearance rate ([5]; iv): 162.2 mL/min
Cmax [5]: 8000 ng/mL
Half life [5]: 38 min
Plasma half life [5]: 0.5 h-0.65
Plasma half-life [5]: 30 to 90 min
MIC90 (Neisseria gonorrhoeae): 0.1 µg/mL (≈ 0.229 µM)

concentration at 0 h (in vivo): 0 ng/mL
concentration at 0.5 h (in vivo): 700 ng/mL
concentration at 1 h (in vivo): 810 ng/mL
concentration at 2 h (in vivo): 2260 ng/mL
concentration at 3 h (in vivo): 3100 ng/mL
concentration at 4 h (in vivo): 3940 ng/mL
concentration at 6 h (in vivo): 4100 ng/mL
concentration at 8 h (in vivo): 2960 ng/mL
concentration at 10 h (in vivo): 2400 ng/mL
concentration at 12 h (in vivo): 1380 ng/mL
concentration at 14 h (in vivo): 630 ng/mL
concentration at 16 h (in vivo): 300 ng/mL
concentration at 20 h (in vivo): 0 ng/mL
concentration at 24 h (in vivo): 0 ng/mL
SMILES: Cc1onc(-c2c(Cl)cccc2Cl)c1C(=O)N[C@@H]1C(=O)N2[C@@H]1SC(C)(C)[C@@H]2C(=O)O [Dicloxacillin]
Bound to plasma proteins (plasma proteins; plasma): 90-98%
Plasma protein binding (plasma proteins; plasma): 90-98%
Zone of inhibition [7]: 10 mm
Zone of inhibition (E. coli [C1]): 9 mm
Zone of inhibition (S. aureus [C2]): 15 mm
Zone of inhibition (S. epidermidis [C4]): 15 mm
Bioavailability after oral administration ([5]; po): 60-80%
Oral absorption ([5]; po): 60-80%
Excreted into the urine [5]: about 60%
Plasma half life [5]: 0.5 to 1 h
Plasma half-life [5]: 30 to 90 min
Urinary Excretion [5]: 60%
Vol Distribution [5]: 0.1 mL/g
Volume of distribution [5]: 0.1 mL/g

SMILES: Cc1onc(-c2ccccc2)c1C(=O)NC1C(=O)N2[C@@H]1SC(C)(C)[C@@H]2C(=O)[O-].[Na+] (stereo partly drawn) [Oxacillin sodium]
Bioavailability after oral administration ([5]; po): 30-35%

SMILES: Cc1onc(-c2ccccc2)c1C(=O)N[C@@H]1C(=O)N2[C@@H]1SC(C)(C)[C@@H]2C(=O)O [oxacillin]
Bound to plasma proteins (plasma proteins; plasma): 89-94%
Serum half-life / half life [5]: 18 to 48 min
